Laboratory results reported in the NIST ThermoML archive (doi:10.1021/je5010164).

Details: Liquid, Frequency=8 MHz, Pulse-echo method

C1CCCC1 [cyclopentane]
Details | speed of sound [m/s]
258.15 K, 100 kPa | 1419.1
258.15 K, 5072 kPa | 1446.1
258.15 K, 10244 kPa | 1473
258.15 K, 15262 kPa | 1498.1
258.15 K, 20158 kPa | 1521.7
258.15 K, 25083 kPa | 1544.5
258.15 K, 30141 kPa | 1567.1
273.15 K, 100 kPa | 1336.6
273.15 K, 5169 kPa | 1366.7
273.15 K, 10059 kPa | 1394.3
273.15 K, 15219 kPa | 1422
273.15 K, 20251 kPa | 1447.9
273.15 K, 25184 kPa | 1472.3
273.15 K, 30227 kPa | 1496.3
293.15 K, 105 kPa | 1230.1
293.15 K, 5059 kPa | 1263
293.15 K, 10088 kPa | 1294.4
293.15 K, 15198 kPa | 1324.6
293.15 K, 20121 kPa | 1352.3
293.15 K, 25192 kPa | 1379.6
293.15 K, 30134 kPa | 1405
313.15 K, 107 kPa | 1126.8
313.15 K, 5113 kPa | 1164
313.15 K, 10058 kPa | 1198.3
313.15 K, 15132 kPa | 1231.3
313.15 K, 20097 kPa | 1261.8
313.15 K, 25098 kPa | 1291
313.15 K, 30162 kPa | 1319.2
333.15 K, 149 kPa | 1026.6
333.15 K, 5035 kPa | 1067.6
333.15 K, 10139 kPa | 1107
333.15 K, 15108 kPa | 1142.5
333.15 K, 20130 kPa | 1176.2
333.15 K, 25152 kPa | 1208
333.15 K, 30170 kPa | 1238
353.15 K, 261 kPa | 929.4
353.15 K, 5019 kPa | 974.63
353.15 K, 10069 kPa | 1018.2
353.15 K, 15107 kPa | 1058.1
353.15 K, 20063 kPa | 1094.4
353.15 K, 25009 kPa | 1128.3
353.15 K, 30157 kPa | 1161.5
